Tests used:
[1] = Selectivity index, ratio of CC50 for human MT4 cells to EC50 for HIV2 ROD; format: toxicity, cell-based; conditions: read-out: Ratio CC50/EC50
[2] = Selectivity index, ratio of CC50 for human MT4 cells to EC50 for HIV1 3B; format: toxicity, cell-based; conditions: read-out: Ratio CC50/EC50
[3] = Cytotoxicity against human MT4 cells by MTT assay; format: cell-based
[4] = test system: Human immunodeficiency virus 2; assay: Antiviral activity against HIV2 ROD infected in human MT4 cells assessed as inhibition of virus-induced cytopathicity by MTT assay; format: functional, organism-based; conditions: Human immunodeficiency virus 2, ISOLATE ROD
[5] = test system: Human immunodeficiency virus 1; assay: Antiviral activity against HIV1 3B infected in human MT4 cells assessed as inhibition of virus-induced cytopathicity by MTT assay; format: functional, organism-based; conditions: Human immunodeficiency virus 1, 3B
[6] = Selectivity index, ratio of CC50 for human MT4 cells to EC50 for HIV1 RES056 harboring reverse transcriptase K103N/Y181C mutant; format: toxicity, cell-based; conditions: read-out: Ratio CC50/EC50
[7] = test system: Human immunodeficiency virus 1; assay: Antiviral activity against HIV1 RES056 harboring reverse transcriptase K103N/Y181C mutant infected in human MT4 cells assessed as inhibition of virus-induced cytopathicity by MTT assay; format: functional, organism-based; conditions: Human immunodeficiency virus 1, RES056, MT4

Structure (SMILES) | selectivity ratio [1] | selectivity ratio [2] | CC50 [3] [µM] | EC50 [4] [µM] | EC50 [5] [µM] | selectivity ratio [6] | EC50 [7] [µM]
O=C(CSc1nncnc1-c1cccc2ccccc12)Nc1ccc(Cl)cc1Cl | < 1 | < 1 | 254 | > 254 | > 254 | – | –
Cc1ccccc1NC(=O)CSc1nncnc1-c1cccc2ccccc12 | < 1 | 194 | 158 | > 158 | 0.828 | < 1 | > 158
COC(=O)c1ccc(NC(=O)CSc2nncnc2-c2cccc3ccccc23)c(Br)c1 | < 1 | 2560 | 173 | > 173 | 0.069 | 7 | 25
CCOC(=O)c1ccc(NC(=O)CSc2nncnc2-c2cccc3ccccc23)c(Br)c1 | < 1 | 524 | 105 | > 105 | 0.21 | < 1 | > 105
CCOC(=O)c1ccc(NC(=O)CSc2nncnc2-c2cccc3ccccc23)c(Cl)c1 | < 1 | 729 | 150 | > 150 | 0.205 | < 1 | > 150
O=C(CSc1nncnc1-c1cccc2ccccc12)Nc1ccc([N+](=O)[O-])cc1Cl | < 1 | < 1 | 150 | > 150 | > 150 | – | –
O=C(CSc1nncnc1-c1cccc2ccccc12)N1CCc2ccccc2C1 | < 1 | 17 | 13 | > 13 | 0.751 | < 1 | > 13
O=C(CSc1nncnc1-c1ccccc1Cl)Nc1cccnc1Cl | < 1 | 2240 | 167 | > 167 | 0.074 | 7 | 23
O=C(CSc1nncnc1-c1ccccc1Cl)Nc1ccc(Cl)cc1Cl | < 1 | 190 | 51 | > 51 | 0.258 | < 1 | > 51
Cc1ccccc1NC(=O)CSc1nncnc1-c1ccccc1Cl | < 1 | 465 | 142 | > 142 | 0.297 | < 1 | > 142
COC(=O)c1ccc(NC(=O)CSc2nncnc2-c2ccccc2Cl)c(Br)c1 | < 1 | 311 | 59 | > 59 | 0.19 | < 1 | > 59
CCOC(=O)c1ccc(NC(=O)CSc2nncnc2-c2ccccc2Cl)c(Br)c1 | < 1 | 302 | 69 | > 69 | 0.236 | < 1 | > 69
Cc1cnc(NC(=O)CSc2nncnc2-c2ccccc2Cl)c(Br)c1 | < 1 | < 1 | 144 | > 144 | > 31 | – | –
O=C(CSc1nncnc1-c1ccccc1Cl)Nc1ccccn1 | < 1 | 51 | 172 | > 123 | 3.3 | < 1 | > 123
COC(=O)c1sccc1NC(=O)CSc1nncnc1-c1ccccc1Cl | < 1 | 35 | 105 | > 105 | 2.9 | < 1 | > 105
Cc1ccc2sc(NC(=O)CSc3nncnc3-c3ccccc3Cl)nc2c1 | < 1 | < 1 | 137 | > 32 | > 32 | – | –
O=C(CSc1nncnc1-c1ccccc1Cl)c1ccc(Br)cc1Br | < 1 | < 1 | 28 | > 28 | > 28 | – | –
O=C(CSc1nncnc1-c1ccccc1Cl)c1ccc(Cl)c(Cl)c1 | < 1 | 5 | 33 | > 33 | 6.2 | – | > 33
O=C(CSc1nncnc1-c1ccccc1Cl)N1CCCc2ccccc21 | < 1 | < 1 | 35 | > 35 | > 35 | – | –
O=C(CSc1nncnc1-c1ccccc1Cl)N1CCc2ccccc2C1 | > 1 | ≥ 52 | ≥ 38 | > 38 | 0.731 | < 1 | ≥ 43

Structure (SMILES) | selectivity ratio [1] | selectivity ratio [2] | CC50 [3] [µM] | EC50 [4] [µM] | EC50 [5] [µM] | selectivity ratio [6] | EC50 [7] [µM]
O=C(CSc1nncnc1-c1cccc2ccccc12)Nc1ccccc1 | < 1 | 101 | 154 | > 154 | 1.53 | < 1 | > 154
O=C(CSc1nncnc1-c1cccc2ccccc12)Nc1ccccc1Cl | < 1 | 470 | 63 | > 63 | 0.135 | < 1 | > 63
O=C(CSc1nncnc1-c1cccc2ccccc12)Nc1ccccc1F | < 1 | 184 | 65 | > 65 | 0.359 | < 1 | > 65
O=C(CSc1nncnc1-c1cccc2ccccc12)Nc1ccccc1Br | < 1 | 503 | 87 | > 87 | 0.173 | ≤ 2 | ≥ 43
Cc1ccc(NC(=O)CSc2nncnc2-c2cccc3ccccc23)c(Br)c1 | < 1 | 852 | 166 | > 166 | 0.195 | 4 | 46
Cc1ccc(NC(=O)CSc2nncnc2-c2cccc3ccccc23)c([N+](=O)[O-])c1 | < 1 | 3170 | 147 | > 147 | 0.046 | 28 | 5.2
O=C(CSc1nncnc1-c1cccc2ccccc12)Nc1ccccc1[N+](=O)[O-] | < 1 | 3260 | 142 | > 142 | 0.043 | 25 | 5.6
CC(=O)c1ccc(NC(=O)CSc2nncnc2-c2cccc3ccccc23)c(Br)c1 | < 1 | 2680 | 133 | > 133 | 0.051 | 31 | 4.3
O=C(CSc1nncnc1-c1cccc2ccccc12)Nc1cccnc1Cl | < 1 | 751 | 44 | > 44 | 0.059 | 6 | 7
O=C(CSc1nncnc1-c1ccccc1Cl)Nc1ccccc1 | < 1 | 296 | 127 | > 127 | 0.42 | < 1 | > 127
O=C(CSc1nncnc1-c1ccccc1Cl)Nc1ccccc1Cl | < 1 | – | – | > 90 | – | ≤ 2 | ≥ 55
O=C(CSc1nncnc1-c1ccccc1Cl)Nc1ccccc1F | < 1 | 471 | 98 | > 98 | 0.21 | < 1 | > 98
O=C(CSc1nncnc1-c1ccccc1Cl)Nc1ccccc1Br | < 1 | 792 | 73 | > 73 | 0.092 | ≤ 1 | ≥ 55
Cc1ccc(NC(=O)CSc2nncnc2-c2ccccc2Cl)c(Br)c1 | < 1 | 253 | 45 | > 45 | 0.178 | ≤ 1 | ≥ 42
CC(=O)c1ccc(NC(=O)CSc2nncnc2-c2ccccc2Cl)c(Br)c1 | < 1 | 404 | 34 | > 35 | 0.086 | < 1 | > 34
CC(C)Nc1cccnc1N1CCN(C(=O)c2cc3cc(NS(C)(=O)=O)ccc3[nH]2)CC1 [DELAVIRDINE] | – | – | > 36 | – | 0.032 | < 1 | > 36
O=C1Nc2ccc(Cl)cc2[C@@](C#CC2CC2)(C(F)(F)F)O1 [EFAVIRENZ] | – | – | > 6.3 | – | – | – | –
Cc1ccnc2c1NC(=O)c1cccnc1N2C1CC1 [NEVIRAPINE] | – | – | > 15 | – | – | – | 11
Nc1ccn([C@H]2CC[C@@H](CO)O2)c(=O)n1 [ZALCITABINE] | > 74 | 68 | > 95 | 1.3 | 1 | – | –
Cc1cn([C@H]2C[C@H](N=[N+]=[N-])[C@@H](CO)O2)c(=O)[nH]c1=O [ZIDOVUDINE] | 56900 | 8300 | – | 0.004 | – | 29600 | 0.009

Reference: ChEMBL document CHEMBL2203176, “Structure-based bioisosterism design, synthesis and biological evaluation of novel 1,2,4-triazin-6-ylthioacetamides as potent HIV-1 NNRTIs” (Bioorg Med Chem Lett, 2012)
